In patent US20140329177A1, “CYCLIC COMPOUND, METHOD FOR PRODUCING SAME, RADIATION-SENSITIVE COMPOSITION, AND RESIST PATTERN FORMATION METHOD” (MITSUBISHI GAS CHEMICAL COMPANY, INC., priority 2011, published 2014):

Experiment: Solubility test of compound in safe solvent
Assay type: physicochemical
Details: 23° C.; for dissolution amount in CHN: cyclohexanone (CHN); for dissolution amount in PGME: propylene glycol monomethyl ether (PGME)
Experimental: The dissolution amounts of compounds obtained in the above synthesis examples 1 to 4 and syntheses 1 and 2 in propylene glycol monomethyl ether (PGME) and cyclohexanone (CHN) were evaluated as follows.
A: 5.0% by mass≦dissolution amount B: 3.0% by mass≦dissolution amount<5.0% by mass C: dissolution amount<3.0% by mass
dissolution amount (% by mass)=mass (g) of compound dissolved in 100 g of solvent of 23° C./(100 g of mass of solvent+mass (g) of compound dissolved in 100 g of solvent of 23° C.)×100

Oc1cc(O)c2cc1C(c1ccc(C3CCCCC3)cc1)c1cc(c(O)cc1O)C(c1ccc(C3CCCCC3)cc1)c1cc(c(O)cc1O)C(c1ccc(C3CCCCC3)cc1)c1cc(c(O)cc1O)C2c1ccc(C2CCCCC2)cc1 (stereo not shown) [CR-2A]
dissolution amount in CHN: B (3.0% by mass≦dissolution amount<5.0% by mass) | dissolution amount in PGME: B (3.0% by mass≦dissolution amount<5.0% by mass)

CC(C)c1ccc(C2c3cc(c(O)cc3O)C(c3ccc(C(C)C)cc3)c3cc(c(O)cc3O)C(c3ccc(C(C)C)cc3)c3cc(c(O)cc3O)C(c3ccc(C(C)C)cc3)c3cc2c(O)cc3O)cc1 (stereo not shown) [CR-1A]
dissolution amount in CHN: C (dissolution amount<3.0% by mass) | dissolution amount in PGME: B (3.0% by mass≦dissolution amount<5.0% by mass)
